Measured values: PMC7142633, “Impact of B-Ring Substitution and Acylation with Hydroxy Cinnamic Acids on the Inhibition of Porcine α-Amylase by Anthocyanin-3-Glycosides” (Foods, 2020)
Like-named read-outs stand apart in the source and are kept apart here. Marks after values point to notes of the source that are not given here.

How the values were obtained:
[1] = aqueous solution; cited from earlier work
[2] = biological target: human salivary α-amylase; set-up: method as in PMID 26471548; conditions: cited from earlier work
[3] = biological target: porcine pancreatic α-amylase; set-up: method as in doi:10.1016/j.jff.2015.11.042; conditions: cited from earlier work
[4] = biological target: T1, α-amylase from porcine pancreas (Sus scrofa, UniProt P00690); test: α-amylase enzyme activity assay, GalG2CNP conversion, UV/Vis detection of CNP at 405 nm; type: biochemical; conditions: for IC50: read-out: IC50 (Cheng−Prussoff, Equation (9)); for Kmapp / vmaxapp: Michaelis Menten fit
T1 construct: A saline suspension of α-amylase from porcine pancreas; purchased Sigma Aldrich (Steinheim, Germany) Lot #SLBN9170V (catalogue number not given); host or cells: porcine pancreas (tissue-derived)
T1 sequence (P00690 16-511): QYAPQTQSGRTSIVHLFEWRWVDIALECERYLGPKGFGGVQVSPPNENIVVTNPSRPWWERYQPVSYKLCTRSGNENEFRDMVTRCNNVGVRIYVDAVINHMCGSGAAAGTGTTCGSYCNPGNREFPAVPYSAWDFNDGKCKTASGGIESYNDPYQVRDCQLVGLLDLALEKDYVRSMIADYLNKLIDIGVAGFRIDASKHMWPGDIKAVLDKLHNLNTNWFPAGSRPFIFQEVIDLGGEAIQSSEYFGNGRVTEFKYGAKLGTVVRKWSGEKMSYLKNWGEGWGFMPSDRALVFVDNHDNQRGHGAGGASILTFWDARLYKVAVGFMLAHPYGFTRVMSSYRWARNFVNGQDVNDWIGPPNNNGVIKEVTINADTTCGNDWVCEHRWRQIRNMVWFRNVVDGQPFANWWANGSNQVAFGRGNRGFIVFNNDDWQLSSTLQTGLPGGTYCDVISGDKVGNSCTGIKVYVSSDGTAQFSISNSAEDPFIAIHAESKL
Procedure: The enzyme activity assay, […], was established by Homoki and co-workers and already used by the authors to evaluate the inhibitory strength of different phenolic structures. To enable the evaluation of the result obtained in the present study compared to the non-anthocyanin phenolics investigated previously, the assay conditions were identical. In short, to 12 different GalG2CNP concentrations ([S] = 0−2000 µM) in MES^+ buffer, inhibitor [I] and 50 µL enzyme solution (c = 1.51 units/~100 pM, on the basis of supplier information) were mixed in a microtiter plate (Greiner BioOne, Frickenhausen, Germany; transparent, F-bottom). For blanks, the enzyme solution was substituted with MES^+ buffer. The final volume per well was 250 µL. To quantify the reaction product, a linear calibration with eight different CNP concentrations in the range of 0−35 µM was performed for each plate. Dilutions of the anthocyanin stock solutions (0.1% HCl) were equilibrated at pH 6.1 for one hour. Final inhibitor concentrations were limited due to its strong absorption at 405 nm to 12.5, 25, and 50 µM. For each anthocyanin structure, the assay was conducted on two to three different days with freshly prepared stocks of substrate, enzyme, and inhibitor.
In addition to the Michaelis Menten constant (Km) and the maximal conversion rate (vmax) values (Table S1), inhibition constants (Kic, Kiu) were calculated by fitting the data by two approaches: (i) According to the mixed inhibition equation (Equation (4)) or competitive inhibition equation (Equation (5)), applying an optimal global fit containing data from all inhibitor concentrations including the control ([I] = 0 µM); and (ii) by an independent fit according to the Michaelis Menten equation (Equation (6)), providing the apparent values Km^app and Vmax^app (Table S2) for each inhibitor concentration, which were then used to calculate the inhibition constants (Equations (7) and (8)). (4) v0= vmax/Km/[S] · (1+[I]/Kic)+(1+[I]/Kiu), (5) v0=vmax/Km/[S] · ( 1+[I]/Kic)+1, (6) v0=vmax · [S]/Km+[S], (7) Kic=vmax^app/Km^app · [I]/vmax/Km−vmax^app/Km^app, (8) Kiu=vmax^app · [I]/vmax− vmax^app.
The IC50 values of the different anthocyanins were derived from the inhibition constants for different substrate concentrations by the Cheng−Prusoff equation (Equation (9)). (9) IC50=(Km+[S])/Km/Kic+[S]/Kiu.
• KM: Michaelis Menten constant (µM) • vmax: Maximal conversion rate of the uninhibited reaction (µM/min) • v0: Observed conversion rate at given substrate and inhibitor concentration (µM/min) • [S]: Substrate concentration • [I]: Inhibitor concentration • Kic: Inhibitor constant, reflecting the competitive inhibition in the equation (µM) • Kiu: Inhibitor constant, reflecting the uncompetitive inhibition in the equation (µM) • vmax^app: Calculated maximal conversion rate, when the Michaelis Menten equation is used on an inhibited curve (µM/min) • Km^app: Calculated Michaelis Menten constant, when the Michaelis Menten equation is used on an inhibited curve (µM) • IC50: Half maximal inhibitory concentration (inhibitor concentration needed to achieve 50% inhibition; it is dependent on the substrate concentration) (µM)
For data analyses and calculations, Origin 2018b (OriginLab, software extension Enzyme Kinetics) was used. The Levenberg−Marquardt algorithm procedure was chosen for iteration. All assays were performed in two independent replicates at different dates. Values are expressed in arithmetic means ± average deviation (AD). The statistical significance and differences between groups were analyzed by one-way analysis of variance (ANOVA), followed by Tukey’s test. Differences were considered significant when p < 0.05. Data were processed using Microsoft Excel® (2010).

[5] = biological target: T1, α-amylase from porcine pancreas; test: Isothermal titration calorimetry, single injection, GalG2CNP conversion; type: biochemical; conditions: 100 µM inhibitor, 0.95 mM substrate, 37 °C
Procedure: To evaluate the inhibitory strength of 100 µM anthocyanin-3-glucosides and black carrot anthocyanins, GalG2CNP conversion to CNP was monitored by the released heat. According to the previous study, ITC measurements were carried out in a single injection experiment set-up on a MICROCALTM PEAQ-ITC calorimeter (S/N MAL1188053, Malvern Panalytical Almelo, Netherlands). Following an equilibration time of 10 min, 1 µL α-amylase (1 µM in 50 mM MES^+ buffer) was added to 0.95 mM of the substrate with or without 100 µM of the phenolic inhibitor in the cell (Vcell = 0.207 mL). The temperature was maintained at 37 °C and the sample was stirred at 750 rpm throughout. The feedback/gain mode was set to high. The resulting heat profile was transformed and the conversion rate was plotted against the substrate concentration [S] by an origin routine template provided by Malvern® for Origin version 7.

[6] = (i) Kic and Kiu by global fit, [S] 10 µM
[7] = (i) Kic and Kiu by global fit, [S] 100 µM
[8] = (i) Kic and Kiu by global fit, [S] 10^3 µM
[9] = (i) Kic and Kiu by global fit, [S] 10^6 µM
[10] = (i) global fit, mixed inhibition Equation (4), read-out: Kic
[11] = (i) global fit, mixed inhibition Equation (4), read-out: Kiu
[12] = (ii) Kic and Kiu by independent fit, [S] 10 µM
[13] = (ii) Kic and Kiu by independent fit, [S] 100 µM
[14] = (ii) Kic and Kiu by independent fit, [S] 10^3 µM
[15] = (ii) Kic and Kiu by independent fit, [S] 10^6 µM
[16] = (ii) independent Michaelis Menten fit (Equation (6)), calculation by Equation (7), read-out: Kic
[17] = (ii) independent Michaelis Menten fit (Equation (6)), calculation by Equation (8), read-out: Kiu
[18] = (ii) independent fit, Equations (7) and (8)
[19] = from apparent values, inhibitor c 25 µM, read-out: Kic
[20] = from apparent values, inhibitor c 25 µM, read-out: Kiu
[21] = from apparent values, inhibitor c 50 µM, read-out: Kic
[22] = from apparent values, inhibitor c 50 µM, read-out: Kiu
[23] = from apparent values, inhibitor c 12,5 µM, read-out: Kic
[24] = from apparent values, inhibitor c 12,5 µM, read-out: Kiu

Compound: OC[C@H]1O[C@@H](Oc2cc3c(O)cc(O)cc3[o+]c2-c2ccc(O)c(O)c2)[C@H](O)[C@@H](O)[C@@H]1O [Cyd-glc, cyanidin-3-glucoside]
- pKH [1]: 3.02 ± 0.06
- IC50 [2]: 180 ± 20 µM
- inhibition type [2]: competitive inhibition type
- IC50 [3]: 24 ± 3 µM
- inhibition type [3]: competitive inhibition type
- IC50 [4, 6]: 83 ± 11 µM
- IC50 [4, 7]: 97 ± 15 µM
- IC50 [4, 8]: 147 ± 36 µM
- IC50 [4, 9]: 184 ± 56 µM
- Kic/Kiu ([4]; (i) global fit, Equation (4)): 0.45 ± 0.08 ***^a
- Ki [4, 10]: 81 ± 10 µM
- Ki [4, 11]: 184 ± 56 µM
- IC50 [4, 12]: 137 µM
- IC50 [4, 13]: 153 µM
- IC50 [4, 14]: 201 µM
- IC50 [4, 15]: 228 µM
- Ki [4, 16]: 134 µM
- Ki [4, 17]: 228 µM
- Kic/Kiu [4, 18]: 0.56 *^a
- Kmapp ([4]; inhibitor c 25 µM): 285 µM
- vmaxapp ([4]; inhibitor c 25 µM): 0,74 ± 0,26 µM/min
- Kmapp ([4]; inhibitor c 50 µM): 300 µM
- vmaxapp ([4]; inhibitor c 50 µM): 0,69 ± 0,21 µM/min
- Kmapp ([4]; inhibitor c 12,5 µM): 244 µM
- vmaxapp ([4]; inhibitor c 12,5 µM): 0,79 ± 0,23 µM/min
- Ki [4, 19]: 64 µM
- Ki [4, 20]: 141 µM
- Ki [4, 21]: 103 µM
- Ki [4, 22]: 250 µM
- Ki [4, 23]: 236 µM
- Ki [4, 24]: 146 µM
- Ki ([4]; mean over inhibitor c 12,5, 25, 50 µM (Supplementary 2), read-out: Kiu mean ± SD): 179 ± 62 µM

Compound: OC[C@H]1O[C@@H](Oc2cc3c(O)cc(O)cc3[o+]c2-c2cc(O)c(O)c(O)c2)[C@H](O)[C@@H](O)[C@@H]1O [Dpd-glc, delphinidin-3-glucoside]
- pKH [1]: 2.36 ± 0.05
- IC50 [4, 6]: 64 ± 25 µM
- IC50 [4, 7]: 77 ± 25 µM
- IC50 [4, 8]: 134 ± 1 µM
- Kic/Kiu ([4]; (i) global fit, Equation (4)): 0.34 ± 0.24 ^a
- Ki [4, 10]: 62 ± 25 µM
- Ki [4, 11]: 204 ± 68 µM
- IC50 [4, 12]: 65 ± 20 µM
- IC50 [4, 13]: 83 ± 24 µM
- IC50 [4, 14]: 167 ± 20 µM
- IC50 [4, 15]: 270 ± 32 µM
- Ki [4, 16]: 63 ± 19 µM
- Ki [4, 17]: 270 ± 33 µM
- Kic/Kiu [4, 18]: 0.26 ± 0.13 ^a
- Kmapp ([4]; inhibitor c 25 µM): 273 ± 52 µM
- vmaxapp ([4]; inhibitor c 25 µM): 0,79 ± 0,09 µM/min
- Kmapp ([4]; inhibitor c 50 µM): 335 ± 129 µM
- vmaxapp ([4]; inhibitor c 50 µM): 0,69 ± 0,03 µM/min
- Kmapp ([4]; inhibitor c 12,5 µM): 247 ± 33 µM
- vmaxapp ([4]; inhibitor c 12,5 µM): 0,84 ± 0,10 µM/min
- Ki [4, 19]: 63 ± 17 µM
- Ki [4, 20]: 233 ± 25 µM
- Ki [4, 21]: 60 ± 27 µM
- Ki [4, 22]: 212 ± 87 µM
- Ki [4, 23]: 66 ± 14 µM
- Ki [4, 24]: 364 ± 13 µM
- Ki ([4]; mean over inhibitor c 12,5, 25, 50 µM (Supplementary 2), read-out: Kic mean ± SD): 63 ± 3 µM
- inhibitory strength by ITC (thermogram, Michaelis Menten plot) [5]: Mlv-3-glc > Cyd-3-glc > Dpd-3-glc~Peo-3-glc

Compound: OC[C@H]1O[C@@H](Oc2cc3c(O)cc(O)cc3[o+]c2-c2ccc(O)cc2)[C@H](O)[C@@H](O)[C@@H]1O [Plg-glc, pelargonidin-3-glucoside]
- pKH [1]: 2.98 ± 0.06
- IC50 [4, 6]: 58 ± 15 µM
- IC50 [4, 7]: 71 ± 20 µM
- IC50 [4, 8]: 117 ± 41 µM
- IC50 [4, 9]: 151 ± 59 µM
- Kic/Kiu ([4]; (i) global fit, Equation (4)): 0.39 ± 0.05 ^a
- Ki [4, 10]: 57 ± 15 µM
- Ki [4, 11]: 151 ± 59 µM
- IC50 [4, 12]: 71 ± 2 µM
- IC50 [4, 13]: 84 ± 7 µM
- IC50 [4, 14]: 127 ± 31 µM
- IC50 [4, 15]: 158 ± 53 µM
- Ki [4, 16]: 69 ± 1 µM
- Ki [4, 17]: 158 ± 53 µM
- Kic/Kiu [4, 18]: 0.46 ± 0.13 ^a
- Kmapp ([4]; inhibitor c 25 µM): 258 ± 13 µM
- vmaxapp ([4]; inhibitor c 25 µM): 0,58 ± 0,22 µM/min
- Kmapp ([4]; inhibitor c 50 µM): 325 ± 42 µM
- vmaxapp ([4]; inhibitor c 50 µM): 0,53 ± 0,23 µM/min
- Kmapp ([4]; inhibitor c 12,5 µM): 235 ± 2 µM
- vmaxapp ([4]; inhibitor c 12,5 µM): 0,65 ± 0,23 µM/min
- Ki [4, 19]: 62 ± 7 µM
- Ki [4, 20]: 126 ± 30 µM
- Ki [4, 21]: 55 ± 19 µM
- Ki [4, 22]: 163 ± 64 µM
- Ki [4, 23]: 91 ± 22 µM
- Ki [4, 24]: 187 ± 64 µM
